# Tests used:
# 13E10 = assay: Hydrolysis of reactant ligands by receptor 13E10; assay type: biochemical, mouse; design: key to hydrolysis by 13E10, symbol: --: No hydrolysis observed; details: pH 8.0; for hydrolysis by 13E10, symbol: 19: 2/5 uM, 21: 5/10 uM receptor/ligand
# Description: (§1) ^1 Preliminary initial hydrolyses shown as the percentage of admixed
# (§2) reactant ligand consumed for catalyzed and spontaneous hydrolyses. "--" =
# (§3) No hydrolysis observed. "NT" = Not tried. All reactions were carried out
# (§4) at pH 8.0 in a 50 mM phosphate buffer unless otherwise noted. Hydrolytic
# (§5) percentages were determined by HPLC using a Hitachi model 655A12 liquid
# (§6) chromatograph with a C18 Vydac 201TP54 column, except as noted below.
# (§7) Mixtures of acetonitrile a nd water containing 0.1 percent trichloroaceti
# (§8) acid [28:72-50:50 (v/v)] were used as elutant. Hydrolyses of Compounds 5
# (§9) and 20 were assayed using fluorescence data.
# (§10) ^2 Concentrations of receptor molecules (Rec.) and reactant ligands
# (§11) (Lig.) in micromolar units, presuming a molecular weight of 150,000
# (§12) daltons for each receptor molecule.
# (§13) ^3 Reactant ligand (Lig.) used as substrate.
# (§14) ^4 Time in hours that the reaction was permitted to take place.
# (§15) ^5 Spontaneous hydrolytic percentages for the time period indicated.
# (§16) ^6 Reaction carried out at pH 7.2 in a 50 mM phosphate buffer.
# 22F5 = assay: Hydrolysis of reactant ligands by receptor 22F5; assay type: biochemical, mouse; design: key to hydrolysis by 22F5, symbol: --: No hydrolysis observed; details: pH 8.0; for hydrolysis by 22F5, symbol: 19: 2/5 uM, 21: 5/10 uM receptor/ligand
# Description: as §1, §2, §3, §4, §5, §6, §7, §8, §9, §10, §11, §12, §13, §14, §15, §16
# [1] = system: eight monoclonal receptors 21G2, 7E5, 37G2, 13E10, 12C9, 44A2, 17G8 and 22F5; assay: Catalyzed hydrolysis of reactant ligands by the eight QPN1 monoclonal receptors, summary; assay type: biochemical, mouse; details: pH 8.0
# Description: Mice were hyperimmunized with the Compound 13-KLH conjugate over a three to four week time period. Sera were assayed in an ELISA using a Compound 13-BSA conjugate bound to microtiter plate wells as the solid-phase antigen. Cloned hybridomas were also screened using that ELISA assay.
# Each of those catalyses could be inhibited by an appropriate analog-ligand. Thus, a relatively high percentage of induced monoclonal receptors was capable of catalyzing an esterolytic reaction. The reason for this relatively high percentage of useful receptors being induced is unknown, but could be due to the presence of phosphonamidate group nitrogen atom, as compared to a phosphonate oxygen atom, or to the quinoline nucleus of the analog-ligand. Those eight catalytic monoclonal receptors and the hybridomas that secrete them are identified by the laboratory designations "QPN1 7E5", "QPN1 12C9", "QPN1 13E10", "QPN1 17G8", "QPN1 21G2", "QPN1 22F5", "QPN1 37G2" and QPN1 44A2. The prefix "QPNI" is sometimes omitted herein when discussing these hybridomas and receptors.
# Amide cleavage for Compounds 14 and 15 was assayed by analyzing for the production of free aminoquinaldine or aminonaphthalene by measuring the increase in the azo dye that results from derivatizing the free aminoquinaldine or aminonapthalene with a diazotization reagent.
# Catalysis reactions were conducted by preparing a reaction admixture of 100 microliters (ul) total volume containing 5 micromolar (uM) monoclonal antibody, 50-75 uM amide reactant ligand substrate and a buffer described hereinafter. The buffer included in the above admixture varied depending upon the pH utilized as follows: pH 5, 10 […] sodium acetate, 10 mM sodium chloride; pH 7.2, 10 mM sodium phosphate, 0.15 molar (M) sodium chloride; pH 8.0; 50 mM sodium phosphate. The amide-containing substrates screened in this assay were added to the above admixture in 1 ul of a 100-fold concentrated stock solution of dimethyl formamide (DMF). Monoclonal antibody was added to the above admixture from a concentrated stock solution. The resulting admixture was placed into the well of a 96 well flat bottom microtiter plate (Costar, Cambridge, Mass.) and maintained in a moist vapor environment chamber at 23 degrees C. The production of aminoquinaldine or aminonaphthalene was then assayed as described below after 2,3,5, or 6 days.
# The aminoquinaldine or aminonapthalene product produced by the catalyzed reaction was measured by first admixing 20 ul of 5M HCl, 80 ul acetone and 10 ul 0.5% (w/v) sodium nitrite to the reaction admixture to form a second admixture and maintaining that second admixture for 3 minutes at room temperature. Thereafter, 10 ul 2.5% (w/v) ammonium sulfamate was added to form a third admixture that was maintained for 2 minutes at room temperature. A still further 10 ul of 0.5% (w/v) N-(1-napthyl)ethylenediamine dihydrochloride was added to form a fourth admixture that was then maintained for 15 minutes at room temperature. Thereafter the resulting azo dye present in the fourth admixture was measured by absorbance spectroscopy at 540 nanometers (nm) for aminoquinaldine using a Model EL 309 Automated Microplate Reader (Bio-Tek Instruments, Winooski, Vt.).
# 37G2 = assay: Hydrolysis of reactant ligands by receptor 37G2; assay type: biochemical, mouse; design: key to hydrolysis by 37G2, symbol: --: No hydrolysis observed; details: pH 8.0; for hydrolysis by 37G2, symbol: 19: 2/5 uM, 21: 5/10 uM receptor/ligand
# Description: as §1, §2, §3, §4, §5, §6, §7, §8, §9, §10, §11, §12, §13, §14, §15, §16
# 7E5 = assay: Hydrolysis of reactant ligands by receptor 7E5; assay type: biochemical, mouse; design: key to hydrolysis by 7E5, symbol: --: No hydrolysis observed; details: pH 8.0; for hydrolysis by 7E5, symbol: 19: 2/5 uM, 21: 5/10 uM receptor/ligand
# Description: as §1, §2, §3, §4, §5, §6, §7, §8, §9, §10, §11, §12, §13, §14, §15, §16
# 1209 = assay: Hydrolysis of reactant ligands by receptor 12C9 (column head prints 1209); assay type: biochemical, mouse; design: key to hydrolysis by 1209, symbol: --: No hydrolysis observed; details: pH 8.0; for hydrolysis by 1209, symbol: 19: 2/5 uM, 21: 5/10 uM receptor/ligand
# Description: as §1, §2, §3, §4, §5, §6, §7, §8, §9, §10, §11, §12, §13, §14, §15, §16
# 17G8 = assay: Hydrolysis of reactant ligands by receptor 17G8; assay type: biochemical, mouse; design: key to hydrolysis by 17G8, symbol: --: No hydrolysis observed; details: pH 8.0; for hydrolysis by 17G8, symbol: 19: 2/5 uM, 21: 5/10 uM receptor/ligand
# Description: as §1, §2, §3, §4, §5, §6, §7, §8, §9, §10, §11, §12, §13, §14, §15, §16
# 21G2 = assay: Hydrolysis of reactant ligands by receptor 21G2; assay type: biochemical, mouse; design: key to hydrolysis by 21G2, symbol: --: No hydrolysis observed; details: pH 8.0; for hydrolysis by 21G2, symbol: 19: 2/5 uM, 21: 5/10 uM receptor/ligand
# Description: as §1, §2, §3, §4, §5, §6, §7, §8, §9, §10, §11, §12, §13, §14, §15, §16
# 44A2 = assay: Hydrolysis of reactant ligands by receptor 44A2; assay type: biochemical, mouse; design: key to hydrolysis by 44A2, symbol: --: No hydrolysis observed; details: pH 8.0; for hydrolysis by 44A2, symbol: 19: 2/5 uM, 21: 5/10 uM receptor/ligand
# Description: as §1, §2, §3, §4, §5, §6, §7, §8, §9, §10, §11, §12, §13, §14, §15, §16
# [2] = Spontaneous (uncatalyzed, background) hydrolysis; assay type: physicochemical; design: key to Spon. (spontaneous hydrolysis), symbol: --: No hydrolysis observed; details: for Spon. (spontaneous hydrolysis), symbol: pH 8.0
# Description: The practical range of pH for the assay is limited by the rapid spontaneous rate of hydrolysis of an ester Compound 5 above pH 8.0. Initially, the ester was used at a concentration that was about four-fold greater than that of the protein, and the mixture was incubated at pH 7.2 for 10 minutes. Any change in fluorescence above background was noted.
# The lack of spectroscopic distinction between such esters and their hydrolysis products recommended a chromatographic analysis of the process. Referring to FIG. 3, a mixture of Compound 7 (5 uM) and the monoclonal antibody from hybridoma P3 6D4 (0.1 uM) in phosphate buffer (50 mM, pH 8.0) was analyzed over time by high performance liquid chromatography (HPLC). The accelerated hydrolysis of the ester was apparent from the decrease of its peak and the concurrent increase in two new peaks that correspond with the expected products. Under these conditions, the ester is completely consumed in 60-80 minutes during which time the background rate accounts for about 12 to 16 percent hydrolysis. The chromatographic profile is the same as that produced by treatment with hog liver esterase.
# ^c The rate constants were determined spectrophotometrically (at 245
# nm) by measuring initial rates at five concentrations of ester.
# as §1, §2, §3, §4, §5, §6, §7, §8, §9, §15
# Reaction kinetics were studied using three reactant ligands as substrates for monoclonal receptors 37G2 and 22F5. Data from initial rates were consistent with Michaelis-Menten reaction mechanism for a usual enzyme-substrate system. Initial rates were followed using at 271 nm using a U.V.-visible spectorphotometer for Compound 17, and a fluorescence spectrometer for Compounds 5 and 20, using an excitation wavelength of 355 nm and an emission wavelength of 455 nm for both compounds.
# [3] = receptor/ligand uM, time h: 17 1/10, 2, 18 2/10, 24, 20 2/10, 0.33, 5 1/5, 0.33, 22 5/10, 3.5, preliminary
SMILES,"hydrolysis by 13E10, symbol (13E10)","hydrolysis by 22F5, symbol (22F5)",receptors (of eight) that catalyzed hydrolysis of the compound [1],"hydrolysis by 37G2, symbol (37G2)","hydrolysis by 7E5, symbol (7E5)","hydrolysis by 1209, symbol 1209","hydrolysis by 17G8, symbol (17G8)","hydrolysis by 21G2, symbol (21G2)","hydrolysis by 44A2, symbol (44A2)","Spon. (spontaneous hydrolysis), symbol [2]",hydrolysis by 13E10 (13E10; [3]),hydrolysis by 22F5 (22F5; [3]),hydrolysis by 37G2 (37G2; [3]),hydrolysis by 7E5 (7E5; [3]),hydrolysis by 1209 1209; [3],"hydrolysis by 17G8 (17G8; receptor/ligand uM, time h: 18 2/10, 24, 20 2/10, 0.33, 5 1/5, 0.33, 22 5/10, 3.5, preliminary)",hydrolysis by 21G2 (21G2; [3]),hydrolysis by 44A2 (44A2; [3]),"Spon. (spontaneous hydrolysis) ([2]; pH 8.0, 50 mM phosphate, time (h): 17 2, 18 24, 20 0.33, 5 0.33, 22 3.5)"
CC(=O)Nc1ccc(CC(=O)Oc2ccccc2NC(C)=O)cc1 [Compound 21],--,--,lack of hydrolysis,--,--,--,--,--,--,--,,,,,,,,,
CC(=O)Nc1ccc(CC(=O)Oc2cccc3ccc(C)nc23)cc1 [Compound 16],--,--,failed to react,--,--,--,--,--,--,--,,,,,,,,,
CC(=O)Nc1ccc(CC(=O)Nc2cccc3ccc(C)nc23)cc1 [Compound 14],--,--,none of the receptors catalyzed hydrolysis,--,--,--,--,--,--,--,,,,,,,,,
CC(=O)Nc1ccc(CC(=O)Nc2cccc3ccccc23)cc1 [Compound 15],--,--,none of the receptors catalyzed hydrolysis,--,--,--,--,--,--,--,,,,,,,,,
CC(=O)Oc1cccc2ccccc12 [Compound 18],,,all of the receptors except 12C9 catalyzed the hydrolysis,,,,,,,,69 percentage of reactant ligand,100 percentage of reactant ligand,92 percentage of reactant ligand,76 percentage of reactant ligand,56 percentage of reactant ligand,84 percentage of reactant ligand,72 percentage of reactant ligand,84 percentage of reactant ligand,34 percentage of reactant ligand
COC(=O)Cc1ccc(NC(C)=O)cc1 [Compound 19],--,--,none of the receptors,--,--,--,--,--,--,--,,,,,,,,,

# Source: patent US5126258A (priority 1988, dated 1992)
